Test results published in US9562076B2, “Hydrophobic modified pres-derived peptides of hepatitis B virus (HBV) and their use as HBV and HDV entry inhibitors” (priority 2008, dated 2017).
Ends that are not written are not given here.

Test system: HBV of genotype D
Assay type: cell-based, hepatitis B virus
Settings: for IC90: HepaRG cells, HBV genotype D inoculum, HBsAg, Table 1
Experimental: HepaRG cells were grown in William's E medium supplemented with 10% fetal calf serum (FCS), 100 units/ml penicillin, 100 μg/ml streptomycin, 5 μg/ml insulin and 5×10^−5 M hydrocortisone hemisuccinate (16). Cells were passaged 1/5 every two weeks by trypsination. Two to three weeks before infection cell differentiation was induced by adding 2% DMSO into the maintenance medium. The medium was exchanged every 2-3 days.
As an infectious inoculum, a 50-fold concentrated culture supernatant of HepG2 clone 2.2.15 (23) cells was used, because of an unlimited supply and a constant quality. It was prepared from freshly collected supernatants by precipitating viral particles in the presence of 6% polyethylene glycol (PEG) 8000. The pellet was resuspended in phosphate buffered saline (PBS) containing 25% FCS. Aliquots were stored at −80° C. Differentiated HepaRG cells or PHH were incubated with the concentrated infectious source, 10-fold diluted in culture medium supplemented with 4% PEG 8000 (Sigma), for 20 h at 37° C. At the end of the incubation, cells were washed three times with the culture medium and maintained in the presence of 2% DMSO and 5×10^−5 M hydrocortisone hemisuccinate and harvested at indicated times.
Competition experiments were performed in 12-well plates. Approximately 1×10^6 cells were first pre-incubated for 30 min with chemically synthesized HBV derived peptides followed by a co-incubation of cells with peptide and virus for 20 h. All competition series were performed at least twice and the results of one representative experiment are shown in each case (see FIGS. 3 to 7).
HepaRG cells were infected either in absence (0 nM) or in the presence of • 1, 5, 25, 100 and 2000 nM of • HBVpreS/2-48^myr(D), • HBVpreS/2-48^myr(C), • HBVpreS/(−11)-48^myr(C), • HBVpreS/2-48^stearoyl(C) and • HBVpreS/(−11)-48^stearoyl(C); or • 0.125; 0.25; 0.5; 0.75 and 1 nM of • HBVpreS/2-48^myr(consensus), • HBVpreS/2-48^stearoyl(consensus), • 1, 5, 25, 100 and 1000 nM of • HBVpreS/2-48^stearoyl(D), • HBVpreS/2-15^stearoyl(D), • HBVpreS/2-21^stearoyl(D), • HBVpreS/2-26^stearoyl(D) and • HBVpreS/2-33^stearoyl(D); or • 1, 5, 25, 100 and 1000 nM of • HBVpreS/2-48^stearoyl(D), • HBVpreS/2-33^stearoyl(D), • HBVpreS/5-33^stearoyl(D), • HBVpreS/5-48^stearoyl(D), • HBVpreS/9-33^stearoyl(D) and • HBVpreS/9-48^stearoyl(D); or • 1, 5, 25, 100 and 1000 nM of • HBVpreS/2-48^stearoyl(D), • HBVpreS/2-48^stearoyl(D-AS^11-15)(D), • HBVpreS/2-48^stearoyl(Ala^11-15)(D), • HBVpreS/2-48^stearoyl(Δ17-21)(D), • HBVpreS/2-48^stearoyl(Ala^17-21)(D); or • 1, 5, 25, 100 and 1000 nM of • HBVpreS/2-48^stearoyl(retroinverso)(D) and • HBVpreS/2-48^stearoyl(Ala^21,23,29,30)(D); or • 1, 5, 25, 100 and 1000 nM of • HBVpreS/2-48^stearoyl(Ala^18)(D), • HBVpreS/2-48^stearoyl(Δ11-15)(D), • HBVpreS/2-48^stearoyl(Ser^13)(D), • HBVpreS/2-48^stearoyl(Arg^11)(D).; or • 50, 100, 150, 250 and 1000 pM […] of • HBVpreS/2-48^myr(C) and • HBVpreS/2-48^stearoyl(C), wherein (C) refers to HBV genotype C Q46K.
The infectious inoculum (HBV of genotype D) and the peptides were incubated overnight. After washing, cells were maintained for another 12 days to allow viral gene expression. Cell culture supernatants from day 8-12 were collected and analyzed for secreted HBSAg using a quantitative commercially available ELISA. HBsAg values from the respective uncompleted infection were set to 100% and the degree of infection inhibition is given in % of the uncompleted infection.

**Q.** Which IC90 does the source give for HBVpreS/2-48^stearoyl(C) here?
**A.** The IC90 was about 1 nM.

**Q.** With “HBVpreS/2-21^stearoyl(C): stearoylated residues 2 to 21 of genotype C, SEQ ID NO. 13 (GTNLSVPNPLGFFPDHQLDP; not fully specified (N-terminus); also: stearoyl)” as the compound, how does the “inhibition of the entry of HBV genotype D by a genotype C derived peptide (cross prevention)” value read?
**A.** Its value is “can inhibit the entry of HBV genotype D”.

**Q.** How did the “inhibition of the entry of HBV genotype D by a genotype C derived peptide (cross prevention)” value turn out when HBVpreS/2-48^myr(C) was run?
**A.** The value was “can inhibit the entry of HBV genotype D”.

**Q.** What about the IC90 of the same compound?
**A.** Its IC90 is about 5 nM.

**Q.** With “HBVpreS/2-48^stearoyl(D): stearoylated residues 2 to 48 of genotype D, SEQ ID NO. 16” as the compound, how does the IC90 read?
**A.** Its IC90 is about 3 nM.

**Q.** Which IC50 (of genotype D) does the source give for `CCCCCCCCCCCCCCCCCC(=O)NCC(=O)N[C@@H](CCC(N)=O)C(=O)N[C@@H](CC(N)=O)C(=O)N[C@@H](CC(C)C)C(=O)N[C@@H](CO)C(=O)N[C@H](C(=O)N[C@@H](CO)C(=O)N[C@@H](CC(N)=O)C(=O)N1CCC[C@H]1C(=O)N[C@@H](CC(C)C)C(=O)NCC(=O)N[C@@H](Cc1ccccc1)C(=O)N[C@@H](Cc1ccccc1)C(=O)N1CCC[C@H]1C(=O)N[C@@H](CC(=O)O)C(=O)N[C@@H](Cc1c[nH]cn1)C(=O)N[C@@H](CCC(N)=O)C(=O)N[C@@H](CC(C)C)C(=O)N[C@@H](CC(=O)O)C(=O)N1CCC[C@H]1C(=O)O)[C@@H](C)O` [HBVpreS/2-21^stearoyl] here?
**A.** The IC50 was about 8 nM.
